Source: the NIST ThermoML archive (doi:10.1021/acs.jced.6b00142)
Where “and” joins values, the source holds several entries; their conditions need not be identical. Equal entries are not always repeated.

Settings: Liquid, Diaphragm manometer

Cl[SiH2]Cl [dichlorosilane]
Settings	vapor or sublimation pressure
299.99 K	214.5 kPa [middle of 4 runs]
300 K	216.5 kPa and 212.1 kPa and 214.2 kPa
309.99 K	284.3 kPa
319.98 K	377.6 kPa
319.99 K	377.9 kPa
320 K	380.4 kPa and 381.43 kPa and 377.3 kPa
323.01 K	407.8 kPa
329.99 K	485.8 kPa
330.02 K	492.2 kPa
339.99 K	626.4 kPa [middle of 4 runs]
340 K	628.6 kPa
343.01 K	672.6 kPa
349.99 K	784.7 kPa and 786.4 kPa and 789 kPa
350 K	785 kPa
359.98 K	981.9 kPa
359.99 K	985.9 kPa [middle of 4 runs]
362.99 K	1052.1 kPa
369.98 K	1205 kPa
369.99 K	1205 kPa and 1209 kPa
379.99 K	1477 kPa [middle of 5 runs]
389.99 K	1779 kPa and 1784 kPa and 1780.5 kPa
399.99 K	2099 kPa and 2138 kPa
409.98 K	2559 kPa
410 K	2534 kPa
419.99 K	3016 kPa

Cl[SiH](Cl)Cl [trichlorosilane]
Settings	vapor or sublimation pressure [kPa]
310 K	121.89
320 K	167.53
330 K	225.35
340 K	297.4
350 K	385.6
360 K	492.1
370 K	619.6
380 K	770.2
380.5 K	778.2
385 K	854.6
390 K	946
395 K	1044.2

Cl[Si](Cl)(Cl)Cl [silicon tetrachloride]
Settings	vapor or sublimation pressure
332.99 K	113.02 kPa
340 K	139.15 kPa and 138.98 kPa
350.01 K	185.05 kPa
360 K	241.64 kPa
370 K	311.49 kPa
380 K	395.69 kPa
390 K	495.9 kPa
400 K	614 kPa
